Measurements as given in PMC9538944, “In vitro biotransformation assays using fish liver cells: Comparing rainbow trout and carp hepatocytes” (Frontiers in Toxicology, 2022).
Marks after values point to notes of the source that are not given here.

Experiments:
common carp hepatocytes = assay: In vitro hepatocyte clearance assay (substrate depletion), carp; format: in vitro ADME, Cyprinus carpio; settings: 20 °C, 2 µM MXC / 0.5 µM BaP, mean over in vitro runs
Procedure: (§1) Isolation of hepatocytes from liver of rainbow trout was performed by a two-step collagenase perfusion procedure which is well established for rainbow trout ([Nabb et al., 2006]; [Fay et al., 2015]). […] In previous studies with common carp, an in vitro digestion method was used to isolate hepatocytes ([Cowan-Ellsberry et al., 2008]; [Dyer et al., 2008]). Here, we adopted the method of [Segner et al. (1993)] who used a two-step collagenase perfusion of carp liver via the Arteria coeliaca for cell isolation. With the perfusion method, the percentage of pancreatic cells in the final cell suspension is typically <5% ([Vogt and Segner, 1997]). Cryopreservation and thawing procedures applied for hepatocytes of both species were based on the standard protocols for rainbow trout ([Fay et al., 2014a]; [Fay et al., 2014b]). The viability of the cells was determined by means of the trypan blue exclusion assay and counting of stained and non-stained cells in a hemocytometer. The carp and trout primary hepatocyte suspensions used in the present study were aliquots of the in vitro preparations used in a previous study investigating the in vitro metabolite patterns of MXC ([Bischof et al., 2016]). A detailed description of the methods and materials used for the preparation of hepatocyte suspensions including the procedures for cell isolation, cryopreservation, and thawing, as well as cell counting, diluting to the target cell concentration, and heat-inactivating can therefore be taken from [Bischof et al. (2016)] and from the cited publications.
(§2) The in vitro hepatocyte clearance experiments were performed in a substrate depletion approach according to the methods previously published by [Fay et al. (2014b)]. These methods are in accordance with the procedures provided in the OECD TG 319A on the performance of in vitro hepatocyte clearance assays. In the present study, several in vitro runs with MXC and BaP using suspensions of either freshly isolated or cryopreserved hepatocytes from common carp and rainbow trout were carried out. For the different in vitro runs non-pooled hepatocytes were used, i.e. hepatocytes from different individual fish. For each run, triplicates of live cells (3 × 1 ml at nominal 2 × 10^6 cells/mL) and heat-inactivated cells as controls were dosed with the test chemical dissolved in acetonitrile (ACN) at the targeted concentration (2 µM for MXC and 0.5 µM for BaP) and incubated for 4 h at 15 °C (trout) or 20 °C (carp). MXC and BaP reactions were run side by side in the same in vitro run using the same hepatocyte suspensions. […]
(§3) Measured values of parent chemical concentration were log10-transformed and plotted against time. […]

[1] = system: rainbow trout hepatocytes; assay: In vitro hepatocyte clearance assay (substrate depletion), trout; format: in vitro ADME, Oncorhynchus mykiss; settings: 15 °C, 4 h, 2 µM MXC / 0.5 µM BaP, mean over in vitro runs
Procedure: as §1, §2, §3

[2] = set-up: method as in Fay et al., 2014b; settings: ref Fay et al., 2014b; cited from earlier work
[3] = cryopreserved carp hepatocytes, 4 h time point excluded
[4] = freshly isolated carp hepatocytes, 4 h, nominal 2 × 10^6 cells/mL
[5] = cryopreserved trout hepatocytes
[6] = freshly isolated trout hepatocytes

Structure (SMILES) | Mean in vitro intrinsic clearance (CLin vitro, int) (common carp hepatocytes; [3]) | Mean in vitro intrinsic clearance (CLin vitro, int) (common carp hepatocytes; [4]) | Mean in vitro intrinsic clearance (CLin vitro, int) [1, 5] | Mean in vitro intrinsic clearance (CLin vitro, int) [1, 6] | log KOW [2]
c1ccc2c(c1)cc1ccc3cccc4ccc2c1c34 [BaP, benzo[a]pyrene] | 0.287 mL/h/10^6 cells | 0.198^* mL/h/10^6 cells | 0.243 mL/h/10^6 cells | 0.251 mL/h/10^6 cells | 5.99
COc1ccc(C(c2ccc(OC)cc2)C(Cl)(Cl)Cl)cc1 [MXC, methoxychlor] | 0.204 mL/h/10^6 cells | 0.287^* mL/h/10^6 cells | 0.283 mL/h/10^6 cells | 0.250 mL/h/10^6 cells | 5.08
